Entries after “also recorded” stand apart in the source; their conditions may differ.
What was measured:
Assay type in all cases: cell-based, human
[1] = system: histone methylation marks (H3K27me3, H3K9me3, H3K4me3, H3K9/K14Ac) in hESCs; assay: Western blot analysis of histone marks; details: 1MNA 0.5 mM, 72 hr, primed hESCs (Elf1 AF), low L-methionine media
Procedure: Cellular extracts were prepared using a lysis buffer containing 20 mM Tris HCl (pH 7.5), 150 mM NaCl, 15% glycerol, 1% Triton, 25 mM (3-glycerolphosphate, 50 mM NaF, 10 mM sodium pyrophosphate, orthovanadate, PMSF), protease inhibitor cocktail (Roche) and 2% SDS. 25 U of BENZONASE® nuclease (EMD Chemicals) and 20 mM of DTT were added to the lysis buffer right before use. Protein concentrations were then determined by the method of Bradford. Fifteen micrograms of protein extracts were loaded, separated by 4-20% SDS-PAGE, and transferred to polyvinylidene difluoride membranes (Hybond-N+, Amersham Pharmacia Biotech). Membranes were blocked with 5% nonfat dry milk for 60 min at room temperature, and incubated overnight at 4° C. with primary antibody. […]
Naïve hESCs (Elf1 2iLIF) grown on MATRIGEL® were treated with 100 μM of STAT3 inhibitor (Selleckchem) for 6 hr or 24 hr and analyzed for methylation marks by Western blot and ChIP Seq. […]
(§1) Naïve Elf1 2iLIF cells were transfected in MATRIGEL® coated plates in MEF-CM supplemented with ROCK inhibitors (Torcis) using LIPOFECTAMINE™ RNAiMAX™ (Life Technologies). siRNA targeting NNMT (Hs-NNMT-8) was purchased from Qiagen as FLEXITUBE® siRNA premix, and siRNA targeting luciferase was used as control. siRNAs against NNMT and luciferase were used at 50 nM final concentration. […] Bright field and fluorescence images were taken after 3 days. […]

[2] = system: Wnt signaling (BAR reporter) in Elf1 cells; assay: BAR Wnt reporter activity in Elf1 reporter cells; details: for BAR reporter activity: naïve Elf1 cells, 72 h, IWP2 2 μM, XAV939 5 μM, siRNA 10 nM
Procedure: Elf1 cells grown in naïve media (2iL or 2iLIF) or primed media (AF) were infected with BAR reporter lentivirus and seeded onto MATRIGEL®-coated plates in MEF-CM with 10 μM Y-27632, and 1 μM Thiazovivin (ROCK inhibitors, Tocris). Transduced Elf cells were cultured for a week on MATRIGEL®, then passaged onto MEF plates for further selection and expansion. Elf1 naïve reporter cells were harvested as single cells via TRYPLE™ Express and FACS sorted for the population with both Venus and DsRed (Discosoma sp. Red fluorescent protein) positive signals. DsRed positive colonies of Elf1 primed reporter cells were manually dissected, transferred onto MEF plates, and the same positive selection was repeated one more round or two depending on the selection efficiency. Negative colonies were manually removed as a negative selection. Once the DsRed positive lines were isolated and stable lines established, the primed Elf1 reporter cells were passaged with dispase.
(§2) Wnt secretion and signaling were inhibited in naïve hESCs (Elf1, WIN1) by treatment with IWP2 (2 μM, Torcis) or XAV939 (5 μM, Sigma). Wnt pathway was activated in primed Elf1 AF reporter cells using a GSK3 inhibitor, CHIR99021 (72 hr, 10 μM, AxonMedChem). Both IWP2 and CHIR99021 were reconstituted in DMSO.
L and L-Wnt3A cells (ATCC) were cultured in 15 cm plates in 10% FBS/DMEM media until 90% confluent. Medium was collected every 48 hr for three batches. Biological activity of secreted Wnt3A in the individual batches of the conditional medium was confirmed in 293T-BAR reporter cells, then batches were pooled and filtered. Primed (Elf1 AF) reporter cells were grown on MATRIGEL® with 50% LCM or 50% Wnt3A-CM for 3 days prior taking bright field and fluorescent pictures.
Naïve Elf1 2iLIF cells were transfected in MATRIGEL® coated plates in MEF-CM supplemented with ROCK inhibitors (Torcis) using LIPOFECTAMINE™ RNAiMAX™ (Life Technologies). siRNA targeting NNMT (Hs-NNMT-8) was purchased from Qiagen as FLEXITUBE® siRNA premix, and siRNA targeting luciferase was used as control. siRNAs against NNMT and luciferase were used at 50 nM final concentration. Proteins and RNAs were extracted 72 hr after transfection. siRNA targeting beta-catenin (Invitrogen, CTNNBI, SILENCER® Select ID s437) and SILENCER® Select Negative Control 1 (Invitrogen) were transfected in naïve Elf1 2iLIF cells at 10 nM final concentration following a reverse transfection protocol. Bright field and fluorescence images were taken after 3 days. The efficacy of NNMT and beta-catenin siRNAs was confirmed by qPCR analysis.

[3] = system: naïve hESCs (WIN1, Elf1); assay: Seahorse mitostress protocol, OCR changes in response to FCCP; details: for OCR changes in response to FCCP: naïve hESCs (WIN1)
Procedure: Naïve and primed ESCs were seeded in their specific growth media onto 96-well Seahorse plates (Seahorse Bioscience) pre-coated with MATRIGEL® at 25×10^4 or 40×10^4 cells/well. Culture media were exchanged for base media (unbuffered DMEM (Sigma D5030) supplemented with sodium pyruvate (Gibco, 1 mM) and with 25 mM glucose (for mito stress assay), 25 mM glucose and 50 μM carnitine (for palmitate assay), or 2 mM glutamine (for glucose stress assay)) 1 hr prior to the assay and for the duration of the measurement. Substrates and selective inhibitors were added during the measurements to achieve final concentrations of glucose (2.5 mM), […] (FCCP, 300 nM-500 nM), oligomycin ([…]), antimycin (2.5 μM), rotenone (2.5 μM), palmitate (50 μM in BSA), BSA (bovine serum albumin) and ETO (50 μM).
The mitochondrial stress protocol starts with the measurement of baseline oxygen consumption rate (OCR) and extracellular acidification rate (ECAR) followed by measurement of OCR and ECAR changes in response to addition of oligomycin, FCCP and finally antimycin and rotenone.
Then palmitate assay starts with the measurement of baseline OCR followed by measurement of OCR changes in response to injection of palmitate or BSA (in negative controls) and ETO. The OCR and ECAR values were further normalized to the number of cells present in each well, quantified by Hoechst staining (H033342; Sigma-Aldrich) as measured using fluorescence at 355 nm excitation and 460 nm emission (ENVISION® 2104 Multilabel reader, Perkin Elmer). Changes in OCR and ECAR in response to substrates and inhibitors addition were defined as the maximal change after the chemical addition compared to the last OCR value before the addition.
as §2
WIN1 and Elf1 cells were seeded in Seahorse plates in naïve (WIN1, Elf1) or primed (WIN1 AF) conditions with or without Kynurenine (100 μM, Sigma) and mitostress protocol was performed 2 days later.
WIN1 cells were seeded in Seahorse plates 2 days prior change of media with media without L-methionine (Sigma 0422 supplemented with 0.584 gm/L L-glutamine) and addition of SAM (500 μM). Five hours later Seahorse mitostress protocol was performed.

[4] = system: NNMT, miR-372, miR-10a expression in naïve hESCs (Elf1); assay: qPCR analysis of NNMT and microRNA expression; details: IWP2 2 μM, 72 hr
Procedure: Total RNA was extracted using TRIZOL® and subsequently analyzed by SYBR® green qPCR with the 7300 real time PCR system (Applied Biosystems) as well as TAQMAN® qPCR (Applied Biosystems).
qPCR of miRNAs was conducted using AQMAN®miRNA assays (Applied Biosystems). Raw Ct (threshold cycle) values for miRNAs were normalized to RNU66 (endogenous snoRNA, internal control). Linear expression values for all qPCR experiments were calculated using the 2 (−ΔCt) method. P-values were calculated using a student's t-test (*p<0.05, **p<0.01, ***p<0.001).
as §2, §1

[5] = primed hESCs (Elf1 AF), 3 days, CHIR99021 10 μM, 50% Wnt3A-CM

Question: For `C[n+]1cccc(C(N)=O)c1` [1MNA, 1-methylnicotinamide], which H3K27me3 mark [1] is on record?
Answer: reduces

Question: What about the H3K27me3 mark ([1]; listed as 1 MNA) of the same compound?
Answer: decreased

Question: Which results are given for `Cc1c[nH]c(-c2cnc(NCCNc3ccc(C#N)cn3)nc2-c2ccc(Cl)cc2Cl)n1` [CHIR99021]?
Answer: BAR reporter [2, 5]: re-activation; differentiation [2, 5]: induces differentiation

Question: Which “OCR changes after FCCP” value ([3]; IWP2 2 μM, 48 hr, naïve hESCs (Elf1, WIN1) and transitioning to primed (WIN1 AF)) does the source give for `Cc1ccc2nc(NC(=O)CSc3nc4c(c(=O)n3-c3ccccc3)SCC4)sc2c1` [IWP2] here?
Answer: decreases

Question: And the “NNMT expression (qPCR)” value [4]?
Answer: downregulates

Question: And the “miR-372 expression (qPCR)” value [4]?
Answer: downregulates

Question: And the BAR reporter activity [2]?
Answer: represses; also recorded: inhibit

Question: How did the “OCR changes in response to FCCP” value ([3]; SAM 500 μM, 5 hr, media without methionine) turn out when `C[S+](CC[C@H](N)C(=O)[O-])C[C@H]1O[C@@H](n2cnc3c(N)ncnc32)[C@H](O)[C@@H]1O` (stereo partly shown) [SAM, S-adenosyl methionine] was run?
Answer: reduces

Question: And the “metabolic profile in naïve hESCs” value ([3]; high levels of SAM (FIG. 4K-4L))?
Answer: induce a primed-like metabolic profile

Question: For `Oc1nc(-c2ccc(C(F)(F)F)cc2)nc2c1CSCC2` [XAV939], which BAR reporter activity [2] is on record?
Answer: dramatically downregulated; also recorded: inhibit

Question: For `Nc1ccccc1C(=O)CC(N)C(=O)O` (stereo not shown) [kynurenine], which “OCR changes in response to FCCP” value ([3]; kynurenine 100 μM, 2 days) is on record?
Answer: reduced

Question: What about the “naïve to primed hESC metabolic switch” value ([3]; kynurenine added to the media (FIG. 4E)) of the same compound?
Answer: accelerated
